# From patent US6613317B1, “Volatile attractants for diabrotica species” (priority 1988, dated 2003)
# Marks after values point to notes of the source that are not given here.
# Experiments:
# D. barberi = test: Sticky trap attraction in prairie habitat, Trelease Woods (Example 2); format: in vivo, Diabrotica barberi; conditions: August 14, 1987; 100 mg per trap; n = 4
# Method: (§1) The candidate lures in all experiments were purchased commercially and exceeded 98% purity. The test chemicals were applied by capillary micropipettes to cotton dental wicks which were attached to the tops of 1.0 liter cylindrical paper cartons covered with TangleTrap™ (Tanglefoot Co., Grand Rapids, Mich.). The sticky trap techniques used were as described in Example 1. Cinnamyl alcohol and para-methoxycinnamaldehyde, which are solids, were dissolved in glass-distilled acetone prior to dosing the cotton wicks. […]. Control traps had untreated cotton wicks. Four replicates of treated and untreated traps were randomly positioned 10 meters apart on top of 1 m high posts along the border of a eight foot wide strip cut through the middle of a 4.05 ha relict prairie at Trelease Woods (ca. two miles northeast of Urbana, Ill.). The field consisted primarily of Andropogon gerardii Vitman (big bluestem) and a variety of composites. The tests were conducted in mid-August of two years and were timed to coincide with the presence of D. cristata and D. barberi adults in the flower heads of Canada thistle (Carduus arvensis Robson). In the second year, several new attractants of D. v. virgifera and D. barberi were tested in Trelease Woods and along the edge of a 0.8 ha field of hybrid corn located at the Pomology South Farms, Urbana, Ill. Attraction of Diabrotica species to the various lures was measured by the mean number of beetles caught after 24-h. On one date in late August of the first year, D. cristata and D. barberi were removed from the traps and sexed in the laboratory. The significance of treatments in all tests was determined by an analysis of variance and the individual means were separated by Duncan's multiple range test (Statistical Package for Social Science, Nie, et al., SPSS: statistical package for the social sciences, 2nd ed. McGraw-Hill, New York (1975). Data were logarithmically transformed for statistical analysis and the means and standard deviations are presented for the untransformed data.
# D. cristata = test: as above; format: in vivo, Diabrotica cristata; conditions: August 14, 1987; 100 mg per trap; n = 4
# Method: as §1
# D. v. virgifera = test: as above; format: in vivo, Diabrotica virgifera virgifera; conditions: August 14, 1987; 100 mg per trap; n = 4
# Method: as §1
# D. u. howardi = test: as above; format: in vivo, Diabrotica undecimpunctata howardi; conditions: August 14, 1987; 100 mg per trap; n = 4
# Method: as §1
# NCR = test: Limit of response rating of squash blossom volatiles on sticky traps (Example 5); format: in vivo, Diabrotica barberi; conditions: 24 hour; four replicate traps; 0.01 mg to 200 mg
# Method: (§2) Over 40 individual volatile chemicals have been isolated from Cucurbita maxima blossoms and circa 25 of these have been unequivocally identified (Andersen, J. F., J. Agric. Food Chem., 35:60-62 (1987): Andersen, J. F. and Metcalf, R. L., J. Chem. Ecol., 12:687-699 (1986)). The major odor components were evaluated as potential attractants for adult Diabrotica species using cylindrical sticky traps baited with dental cotton wicks (Metcalf, R. L., and Lampman, R. L., Paper submitted to J. Econ. Entomol., (1988)) containing from 0.01 mg to 200 mg of volatile compound.
# SCR = test: as above; format: in vivo, Diabrotica undecimpunctata howardi; conditions: 24 hour; four replicate traps; 0.01 mg to 200 mg
# Method: as §2
# WCR = test: as above; format: in vivo, Diabrotica virgifera virgifera; conditions: 24 hour; four replicate traps; 0.01 mg to 200 mg
# Method: as §2
# [1] = system: western corn rootworm (WCR) adults; test: Sticky trap attraction in corn, estragole analogues (Example 3); format: in vivo, Diabrotica virgifera virgifera; conditions: 100 mg per trap, n = 4; for Mean number of WCR per sticky trap after 24 hours: August 5 (Table 10)
# Method: (§3) Test chemicals were applied by capillary micropipettes to cotton dental wicks that were attached to tops of 1.0 liter cylindrical paper cartons covered with TangleTrap™, Grand Rapids, Mich. The trapping techniques used were as previously described in Example 1. Cinnamyl alcohol, 4-methoxycinnamaldehyde, cinnamyl acetate, and 4-(4′methoxyphenyl)-3-butene-2-one which are solids at ambient temperature were prepared as standard w/v solutions in acetone prior to dosing the cotton wicks. All treatments were made at a dosage of 100 mg or 100 μL of attractant per trap. Control traps had untreated wicks. Four replicates of treated and untreated traps were positioned randomly 10 meters apart on top of 1 m high posts along the edges of 25-50 ha. fields of hybrid corn (Zea mays), infested with adult NCR, SCR, and WCR beetles. Several experiments detailed in the Tables were made in a 0.4 ha plot of sweet corn (Illini X-tra Sweet).
# (§4) Attraction of Diabrotica species adults of the sticky traps was measured by the mean number of beetles caught after 1 day (ca. 24 hours) exposure. The significance of the treatments was determined by analysis of variance and the individual means were separated by Duncan's multiple range test (Statistical Package for the Social Sciences, Nie, et al., 2nd. ed. McGraw-Hill, New York (1975). The data was logarithmically transformed for statistical analysis. Means and standard deviations are presented for the untransformed data. Significance levels were set at P=0.05 for all statistical analyses.
# [2] = system: southern corn rootworm (SCR) adults; test: as above; format: in vivo, Diabrotica undecimpunctata howardi; conditions: 100 mg per trap, n = 4; for Mean number of SCR per sticky trap after 24 hours: August 5 (Table 10)
# Method: as §3, §4
# [3] = system: northern corn rootworm (NCR) adults; test: as above; format: in vivo, Diabrotica barberi; conditions: August 5 (Table 10); 100 mg per trap; n = 4
# Method: as §3, §4
# [4] = system: southern corn rootworm (SCR) adults; test: Sticky trap attraction in sweet corn plots (Example 1); format: in vivo, Diabrotica undecimpunctata howardi; conditions: for Mean number of SCR per trap (±standard deviation): n = 4
# Method: (§5) The attraction of Diabrotica species to single-component and multicomponent lures was evaluated in corn fields. The field experiments on attraction of SCR and WCR adults were conducted in 0.405-ha (1-acre) plots of “Illini Xtra Sweet” corn grown on the University of Illinois South Farms at Urbana, Ill., over a two year period. Most of the tests were conducted in August to correspond with the peak silk-feeding and oviposition periods of corn rootworm adults in central Illinois. In both years, the sweet corn plot was adjacent to a 0.405-ha trap crop of C. maxima cultivar “Blue Hubbard”, to provide high densitites of SCR and WCR adults in the corn plots (Howe, et al., Environ. Entomol., 5:745-751 (1976), Lampman, et al., J. Chem. Ecol., 13:959-975 (1987).
# (§6) Attraction of Diabrotica species to volatile compounds was measured by the average number of beetles cought during a 24-h period on 1.0-liter cylindrical paper cartons (15.2 cm high, 27.9 cm circumference) which were evenly coated with clear insect adhesive, TangleTrap™ (Tanglefood Co., Grand Rapids, Mich.) The candidate attractants were applied by capillary micropiettes to cotton dental wicks (13 mm long by 6 mm diameter) that were previously impregnated with mineral oil to prolong volatilization. The chemicals were purchased from Aldrich Chemical Co., (Milwaukee, Wis.) and assayed by gas chromatography as >97% pure. Indole, a solid at ambient temperatures (m.p. 52-54° C.), was dissolved in glass-distilled acetone before dosing the cotton wicks. For dosage-acticity tests, the various components were mixed in equal quantities by weight and diluted to the appropriate dosage with acetone. Treated and untreated (control) wicks were attached to the top of the paper cartons with TangleTrap™ and the inverted traps were placed on 1-m-high posts between the sweet corn rows. Four replicates of each treatment and a control were conducted in a randomized complete block desgin. The sticky traps within a block (ca. 50-m row of corn) were 5-10 m apart (depending on the number of treatments in a particular test) and the blocks were 3 m apart. The traps were baited and placed in the field between 1000 and 1300 hours and beetle counts were taken after 24 h. The significance of treatments was determined by analysis of variance and the individual means were separated by Duncan's multiple range test (Statistical Package for Social Sciences (SPSS) (Nie, et al., SPSS: statistical package for the social sciences, 2nd ed. McGraw-Hill, N.Y. (1975)). Student's t test was used for comparisons of two means (Sokal, et al., Biometry, Freeman, San Francisco (1969). Significance levels were set at P=0.05 at all statistical analyses.
# (§7) The initial field test in August of the first year evaluated the response of SCR and WCR adults of a mixture of veratrole (V), indole (I), phenylacetaldehyde (P), trans-anethole (A), and eugenol (E) (=VIPAE mixture), as well as to the individual components. Each component in the VIPAE mixture was present at a dosage of 20 mg per trap and was compared with the individual components at 100 mg per trap. The response of SCR and WCR adults to a range of VIPAE doses, 1-300 mg, was conducted on the following day. Fifty SCR adults were removed from each 100-mg VIPAE trap, and returned to the laboratory for sex determination. Additional analyses in August evaluated the reduction in trap catches produced by the sequential removal of the individual components from the VIPAE lure. After the primary components of the initial lure were determined, a modified multicomponent lure consisting of veratrole, indole, and phenylacetaldehyde (=VIP mixture) was compared with its individual components to determine whether the attraction of SCR adults was the result of interactive or additive factors. The attraction and synergistic response of SCR adults of the VIP mixture was verified by tests conducted in August of the following year. […]
# [5] = system: western corn rootworm (WCR) adults; test: as above; format: in vivo, Diabrotica virgifera virgifera; conditions: for Mean number of WCR per trap (±standard deviation): n = 4
# Method: as §5, §6, §7
# [6] = August 4, second year, each compound 20 mg per trap
# [7] = August 7, second year, each compound 20 mg per trap
# [8] = August first year, South Farms, 24 h, single compounds 100 mg per trap, mixture 20 mg of each component
# [9] = August first year, single compounds 100 mg per trap, mixture 20 mg each component
compound,measurement,setting,value
CC(=O)/C=C/C1C(C)=CCCC1(C)C (stereo not drawn) [α-ionone],Mean number of D. barberi per day (±standard deviation),D. barberi,0.3 ± 0.5^a per day
same,Mean number of D. cristata per day (±standard deviation),D. cristata,2.8 ± 2.1^a per day
same,Mean number of D. v. virgifera per day (±standard deviation),D. v. virgifera,0.0^a per day
same,Mean number of D. u. howardi per day (±standard deviation),D. u. howardi,0.0^a per day
same,Attractant Rating NCR (by limit of response),NCR,0 (200)
same,Attractant Rating SCR (by limit of response),SCR,0 (200)
same,Attractant Rating WCR (by limit of response),WCR,0 (200)
"CC(=O)OCC=Cc1ccccc1 [XIX, cinnamyl acetate]",Mean number of WCR per sticky trap after 24 hours,[1],24.0 ± 1.07^b per sticky trap
same,Mean number of SCR per sticky trap after 24 hours,[2],6.0 ± 1.5^a per sticky trap
same,Mean number of NCR per sticky trap after 24 hours,[3],5.7 ± 2.9^b per sticky trap
O=CCc1ccccc1 [Phenylacetaldehyde],relative percent activity (SCR) as compared with the highest mean value for the test date,[4]; [6],8%
same,Mean number of SCR per trap (±standard deviation),[4]; [6],3.0 ± 1.2 per trap
same,relative percent activity (SCR) as compared with the highest mean value for the test date,[4]; [7],12%
same,Mean number of SCR per trap (±standard deviation),[4]; [7],5.3 ± 3.2 per trap
same,Mean number of SCR per trap (±standard deviation),[4]; [8],2.5 ± 1.9 per trap
same,relative percent activity of the mean SCR trap catch as compared with the highest mean value in the column,[4]; [9],12%
same,relative percent activity (WCR) as compared with the highest mean value for the test date,[5]; [6],35%
same,Mean number of WCR per trap (±standard deviation),[5]; [6],17.8 ± 7.9 per trap
same,relative percent activity (WCR) as compared with the highest mean value for the test date,[5]; [7],42%
same,Mean number of WCR per trap (±standard deviation),[5]; [7],13.3 ± 8.1 per trap
same,Mean number of WCR per trap (±standard deviation),[5]; [8],1.8 ± 1.3 per trap
same,relative percent activity of the mean WCR trap catch as compared with the highest mean value in the column,[5]; [9],26%
same,Attractant Rating NCR (by limit of response),NCR,0 (200)
same,Attractant Rating SCR (by limit of response),SCR,+2 (10-30)
same,Attractant Rating WCR (by limit of response),WCR,0 (200)
"O=C(O)CCc1ccccc1 [XXII, dihydrocinnamic acid]",Mean number of WCR per sticky trap after 24 hours,[1],12.0 ± 3.6^a per sticky trap
same,Mean number of SCR per sticky trap after 24 hours,[2],33.7 ± 8.7^bc per sticky trap
same,Mean number of NCR per sticky trap after 24 hours,[3],4.0 ± 1.4^b per sticky trap
"N#CCCc1ccccc1 [XXIII, phenyl propionitrile]",Mean number of WCR per sticky trap after 24 hours,[1],12.0 ± 4.2^a per sticky trap
same,Mean number of SCR per sticky trap after 24 hours,[2],23.7 ± 9.7^b per sticky trap
same,Mean number of NCR per sticky trap after 24 hours,[3],0.3 ± 0.5^a per sticky trap
"COC(=O)C=Cc1ccccc1 [XV, cinnamic acid methyl ester]",Mean number of WCR per sticky trap after 24 hours,[1],9.5 ± 4.5^a per sticky trap
same,Mean number of WCR adults per sticky trap (±standard deviation) after 24 hours,[1]; September 11,1.7 ± 1.7^a per sticky trap
same,Mean number of SCR per sticky trap after 24 hours,[2],2.0 ± 0.8^a per sticky trap
same,Mean number of SCR adults per sticky trap (±standard deviation) after 24 hours,[2]; September 11,3.2 ± 1.7^ab per sticky trap
same,Mean number of NCR per sticky trap after 24 hours,[3],0.5 ± 0.6^a per sticky trap
"O=C(O)C=Cc1ccccc1 [XX, cinnamic acid]",Mean number of WCR per sticky trap after 24 hours,[1],12.7 ± 4.9^a per sticky trap
same,Mean number of SCR per sticky trap after 24 hours,[2],1.7 ± 0.5^a per sticky trap
same,Mean number of NCR per sticky trap after 24 hours,[3],1.7 ± 1.0^a per sticky trap
"N#CC=Cc1ccccc1 [X, cinnamonitrile]",Mean number of WCR adults per sticky trap (±standard deviation) after 24 hours,[1]; August 4 second year,32.7 ± 11.4^bc per sticky trap
same,Mean number of WCR per sticky trap after 24 hours,[1],37.8 ± 7.8^cd per sticky trap
same,Mean number of WCR adults per sticky trap (±standard deviation) after 24 hours,[1]; August 5 first year,1.5 ± 6.6^ab per sticky trap
same,Mean number of SCR adults per sticky trap (±standard deviation) after 24 hours,[2]; August 4 second year,59.5 ± 49.0^c per sticky trap
same,Mean number of SCR per sticky trap after 24 hours,[2],47.5 ± 15.4^cd per sticky trap
same,Mean number of SCR adults per sticky trap (±standard deviation) after 24 hours,[2]; August 5 first year,156.0 ± 37.2^c per sticky trap
same,Mean number of NCR per sticky trap after 24 hours,[3],0.3 ± 0.5^a per sticky trap
